Like-named read-outs stand apart in the source and are kept apart here.
What was measured:
[1] = target: T1, human PR-B (Homo sapiens, UniProt P06401); assay: Co-transfection assay, PR agonist activity; format: cell-based; settings: for PR Agonist CV-1 Cells Efficacy (%): percent maximal response relative to reference agonist progesterone; for Emax: CV-1, read-out: PR Agonist CV-1 Cells Efficacy (%);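 on all read-outs here: CV-1 cells (African green monkey kidney) co-transfected with receptor plasmid and hormone-responsive firefly luciferase reporter, agonism read as compound-dependent rise in luciferase signal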
T1 construct: expressed in transfected cells; host or cells: CV-1 cells (African green monkey kidney fibroblasts), transient transfection
T1 sequence (P06401 1-933): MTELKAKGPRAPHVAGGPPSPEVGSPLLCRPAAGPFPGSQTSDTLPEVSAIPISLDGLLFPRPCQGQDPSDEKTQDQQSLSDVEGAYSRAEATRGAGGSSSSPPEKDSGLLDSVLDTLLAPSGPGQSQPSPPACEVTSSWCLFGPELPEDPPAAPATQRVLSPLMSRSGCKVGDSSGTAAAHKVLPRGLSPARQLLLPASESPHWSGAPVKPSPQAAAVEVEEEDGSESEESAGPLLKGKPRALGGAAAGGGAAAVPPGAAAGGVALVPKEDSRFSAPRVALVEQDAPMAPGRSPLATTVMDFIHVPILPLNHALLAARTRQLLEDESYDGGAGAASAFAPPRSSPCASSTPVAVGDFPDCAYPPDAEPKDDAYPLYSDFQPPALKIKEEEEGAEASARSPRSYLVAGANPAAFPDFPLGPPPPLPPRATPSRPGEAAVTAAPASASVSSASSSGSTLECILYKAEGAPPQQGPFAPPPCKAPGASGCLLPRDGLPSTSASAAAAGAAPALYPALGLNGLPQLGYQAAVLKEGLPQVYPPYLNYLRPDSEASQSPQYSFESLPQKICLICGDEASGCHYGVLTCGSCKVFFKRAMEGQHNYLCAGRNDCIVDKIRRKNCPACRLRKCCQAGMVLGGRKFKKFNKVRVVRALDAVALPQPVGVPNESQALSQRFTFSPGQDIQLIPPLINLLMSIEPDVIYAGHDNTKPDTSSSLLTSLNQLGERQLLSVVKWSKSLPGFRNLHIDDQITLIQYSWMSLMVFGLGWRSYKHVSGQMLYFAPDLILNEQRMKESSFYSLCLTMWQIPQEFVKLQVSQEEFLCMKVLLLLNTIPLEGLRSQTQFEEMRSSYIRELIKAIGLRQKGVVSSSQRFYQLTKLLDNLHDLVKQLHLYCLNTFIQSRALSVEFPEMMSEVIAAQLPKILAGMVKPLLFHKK

[2] = target: T2, human progesterone receptor A form (PR-A) (Homo sapiens, UniProt P06401); assay: PR binding assay
T2 sequence (P06401 1-933): T1 sequence (P06401 1-933)

[3] = target: T1, human PR-B; assay: Co-transfection assay, PR antagonist activity; format: cell-based; settings: for Emax: CV-1, read-out: PR Antagonist CV-1 Cells Efficacy (%);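 on all read-outs here: monkey kidney fibroblasts co-transfected with receptor expression plasmid and hormone-responsive luciferase reporter, antagonism read as reduced luciferase signal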
[4] = target: T3, ER (Homo sapiens, UniProt P03372); assay: Co-transfection assay, ER agonist activity; format: cell-based
T3 construct: expressed in transfected cells; host or cells: CV-1 cells, transient transfection, with MTV-ERE5-LUC reporter
T3 sequence (P03372 whole entry): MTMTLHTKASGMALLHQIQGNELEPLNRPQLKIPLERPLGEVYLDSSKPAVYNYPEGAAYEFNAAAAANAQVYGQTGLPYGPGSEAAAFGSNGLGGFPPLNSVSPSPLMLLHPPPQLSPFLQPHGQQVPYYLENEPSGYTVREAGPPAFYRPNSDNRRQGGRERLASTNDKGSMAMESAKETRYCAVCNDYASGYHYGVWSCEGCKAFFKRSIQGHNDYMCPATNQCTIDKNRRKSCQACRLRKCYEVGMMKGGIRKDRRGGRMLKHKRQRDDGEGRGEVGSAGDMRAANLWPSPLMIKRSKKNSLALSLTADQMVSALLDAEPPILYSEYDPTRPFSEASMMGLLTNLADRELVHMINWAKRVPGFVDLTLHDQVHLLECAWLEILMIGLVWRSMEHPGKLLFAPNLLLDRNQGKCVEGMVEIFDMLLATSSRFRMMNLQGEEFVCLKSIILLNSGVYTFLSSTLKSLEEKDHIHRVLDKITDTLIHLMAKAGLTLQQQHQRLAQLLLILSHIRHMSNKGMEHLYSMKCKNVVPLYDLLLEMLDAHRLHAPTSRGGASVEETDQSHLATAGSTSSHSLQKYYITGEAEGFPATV

[5] = target: T3, ER; assay: Co-transfection assay, ER antagonist activity; format: cell-based
[6] = target: T4, GR (Homo sapiens, UniProt P04150); assay: Co-transfection assay, GR antagonist activity; format: cell-based
T4 construct: expressed in transfected cells; host or cells: CV-1 cells, transient transfection
T4 sequence (P04150 1-777): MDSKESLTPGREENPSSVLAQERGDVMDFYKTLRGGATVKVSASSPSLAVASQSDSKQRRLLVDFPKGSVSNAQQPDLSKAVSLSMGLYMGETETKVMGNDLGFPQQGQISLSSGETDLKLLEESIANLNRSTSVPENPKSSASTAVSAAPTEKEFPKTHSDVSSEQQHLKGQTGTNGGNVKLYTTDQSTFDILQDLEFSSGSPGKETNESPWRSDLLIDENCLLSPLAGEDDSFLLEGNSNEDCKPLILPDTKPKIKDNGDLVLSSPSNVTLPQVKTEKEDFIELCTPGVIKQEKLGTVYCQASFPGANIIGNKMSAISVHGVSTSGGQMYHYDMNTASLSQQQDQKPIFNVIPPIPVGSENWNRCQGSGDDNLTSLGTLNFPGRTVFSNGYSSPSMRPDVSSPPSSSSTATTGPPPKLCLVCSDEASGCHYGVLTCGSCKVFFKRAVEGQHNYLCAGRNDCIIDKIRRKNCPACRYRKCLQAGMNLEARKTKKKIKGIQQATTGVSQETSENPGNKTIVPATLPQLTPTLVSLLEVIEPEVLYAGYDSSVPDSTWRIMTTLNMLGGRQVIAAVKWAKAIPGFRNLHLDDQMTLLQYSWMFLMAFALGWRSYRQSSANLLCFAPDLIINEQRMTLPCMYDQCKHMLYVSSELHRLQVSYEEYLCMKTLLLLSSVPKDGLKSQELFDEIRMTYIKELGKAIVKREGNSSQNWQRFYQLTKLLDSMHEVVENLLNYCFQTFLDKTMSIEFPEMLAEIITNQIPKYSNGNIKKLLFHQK

[7] = target: T5, MR (Homo sapiens, UniProt P08235); assay: Co-transfection assay, MR antagonist activity; format: cell-based
T5 construct: expressed in transfected cells; host or cells: CV-1 cells, transient transfection
T5 sequence (P08235 1-984): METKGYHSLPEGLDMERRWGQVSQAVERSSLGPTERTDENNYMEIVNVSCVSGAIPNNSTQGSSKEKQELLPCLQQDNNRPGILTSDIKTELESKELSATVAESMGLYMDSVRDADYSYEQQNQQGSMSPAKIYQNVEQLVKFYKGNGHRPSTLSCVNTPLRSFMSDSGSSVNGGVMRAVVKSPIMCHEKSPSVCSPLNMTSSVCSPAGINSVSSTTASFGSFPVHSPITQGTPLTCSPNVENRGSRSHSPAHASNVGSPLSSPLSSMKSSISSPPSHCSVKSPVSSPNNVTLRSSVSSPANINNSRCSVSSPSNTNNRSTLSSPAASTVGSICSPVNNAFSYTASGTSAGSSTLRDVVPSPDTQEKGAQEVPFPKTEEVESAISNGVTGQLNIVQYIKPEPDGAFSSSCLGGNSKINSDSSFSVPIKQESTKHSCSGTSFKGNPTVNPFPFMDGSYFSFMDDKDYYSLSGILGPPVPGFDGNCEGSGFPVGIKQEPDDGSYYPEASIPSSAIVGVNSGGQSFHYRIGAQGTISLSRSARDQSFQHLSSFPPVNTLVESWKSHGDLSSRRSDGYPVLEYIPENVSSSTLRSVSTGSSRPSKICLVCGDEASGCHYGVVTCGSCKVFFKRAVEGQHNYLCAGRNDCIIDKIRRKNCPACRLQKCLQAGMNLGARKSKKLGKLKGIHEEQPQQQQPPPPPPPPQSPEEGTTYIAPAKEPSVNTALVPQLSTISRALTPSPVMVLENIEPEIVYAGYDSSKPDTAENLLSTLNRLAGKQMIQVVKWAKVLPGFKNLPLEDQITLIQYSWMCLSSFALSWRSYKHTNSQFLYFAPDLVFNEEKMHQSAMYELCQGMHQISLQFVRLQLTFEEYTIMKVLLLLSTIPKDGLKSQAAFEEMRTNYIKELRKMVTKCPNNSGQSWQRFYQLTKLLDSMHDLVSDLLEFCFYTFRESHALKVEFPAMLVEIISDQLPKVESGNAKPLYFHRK

[8] = test system: PR; assay: Uterine wet weight assay (PR agonist effectiveness); format: in vivo, Sprague-Dawely rats
Excerpt: J. Obstet. […] R.I. Dorfman, Academic Press, New York, New York, pp101-130 (1969), the disclosures of which are herein incorporated by reference. Four to five week old, ovariectomized, Sprague-Dawely rats (Harlan-Sprague-Dawely, Indianapolis, IN) were obtained 1 week after surgery and allowed to acclimate for an additional week after shipment.

[9] = target: T6, AR (Homo sapiens, UniProt P10275); assay: Co-transfection assay, AR agonist activity; format: cell-based; settings: CV-1 cells
T6 construct: expressed in transfected cells; host or cells: CV-1 cells, transient transfection
T6 sequence (P10275 whole entry): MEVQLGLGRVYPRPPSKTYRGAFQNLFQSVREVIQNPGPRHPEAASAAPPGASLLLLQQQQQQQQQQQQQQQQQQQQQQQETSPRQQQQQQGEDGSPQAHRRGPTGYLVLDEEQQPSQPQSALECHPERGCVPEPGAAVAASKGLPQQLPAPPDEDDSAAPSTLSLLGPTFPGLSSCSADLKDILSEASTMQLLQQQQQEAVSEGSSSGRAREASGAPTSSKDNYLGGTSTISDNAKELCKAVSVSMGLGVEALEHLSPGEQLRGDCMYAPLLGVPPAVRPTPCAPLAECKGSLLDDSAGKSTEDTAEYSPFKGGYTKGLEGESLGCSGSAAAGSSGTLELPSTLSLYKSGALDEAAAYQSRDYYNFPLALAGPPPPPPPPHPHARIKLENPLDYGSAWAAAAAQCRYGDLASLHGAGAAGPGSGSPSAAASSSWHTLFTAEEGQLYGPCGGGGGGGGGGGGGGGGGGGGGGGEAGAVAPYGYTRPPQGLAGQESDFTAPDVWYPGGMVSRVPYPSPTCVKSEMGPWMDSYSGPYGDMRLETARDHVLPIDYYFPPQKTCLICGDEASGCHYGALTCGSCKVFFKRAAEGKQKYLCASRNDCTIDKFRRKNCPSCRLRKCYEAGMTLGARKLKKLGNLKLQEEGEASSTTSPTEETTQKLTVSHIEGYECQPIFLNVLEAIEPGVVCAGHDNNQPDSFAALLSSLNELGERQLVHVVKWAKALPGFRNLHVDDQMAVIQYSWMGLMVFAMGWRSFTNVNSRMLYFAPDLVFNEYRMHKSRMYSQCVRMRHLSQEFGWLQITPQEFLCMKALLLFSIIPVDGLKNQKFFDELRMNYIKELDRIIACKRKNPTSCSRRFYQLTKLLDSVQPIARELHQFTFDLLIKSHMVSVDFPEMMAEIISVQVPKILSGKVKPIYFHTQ

[10] = target: T6, AR; assay: Co-transfection assay, AR antagonist activity; format: cell-based
[11] = test system: human AR; assay: AR whole cell binding assay (COS-1 cells); settings: whole COS-1 cells, competition with 1 nM 3H-DHT, three hours at 37°C
[12] = test system: PR; assay: Implantation assay (antiprogestin activity); format: in vivo, mice (ICR strain)
Protocol: Mating was assumed to have taken place at 02.00 h, time 0.
Compound 150 was dissolved in sesame oil (50 mg/mL) and kept at room temperature before use. […] Control animals received an equivuivalent volume of the control vehicle, sesame oil, alone.
The animals were sacrificed, and autopsies were carried out at Day 8 of pregnancy, and numbers of implantation sites counted and recorded, and are shown in Table 7 below. Each group consisted of between 5 and 7 animals.

[13] = CV-1 cells, agonist potency = EC50, read-out: PR Agonist CV-1 Cells Potency
[14] = competition with [3H] progesterone, baculovirus extract, 4°C, 16 hours, read-out: PR Binding Ki

Question: How did the EC50 [1, 13] turn out when “8-Bromo-1,2-dihydro-2,2,4-trimethylindeno[1,2-g]quinoline [Compound 117]” was run?
Answer: > 10 µM

Question: What about the “PR Agonist CV-1 Cells Efficacy (%)” value ([1]; CV-1 cells) of the same compound?
Answer: na (na = not active (i.e. efficacy of <20 and potency of >10,000))

Question: What about the Ki [2, 14] of the same compound?
Answer: > 10 µM

Question: What does the source list for `CC1=CC(C)(C)Nc2ccc3c(c21)C(c1ccc(Cl)cc1)Oc1ccccc1-3` (racemic) [Compound 163, (R/S)-5-(4-Chlorophenyl)-1,2-dihydro-2,2,4-trimethyl-5H-chromeno[3,4-f]quinoline]?
Answer: Emax [1]: 77%; Emax [3]: 45%; EC50 [4]: > 10 µM; IC50 [5]: 2.15 µM; IC50 [6]: 1.33 µM; IC50 [7]: 1.45 µM; Mean Uterine Wet Weight ([8]; 3.0 mg/rat oral once a day for three days in the presence of estrone (10 µg/day, subcutaneous)): 125 mg; effect on mean uterine wet weight ([8]; co-administered with estrone, dosage of 3 mg/rat): decreased by approximately half

Question: How did the EC50 [1] turn out when `C[C@H]1C(=O)C(C)(C)Nc2ccc3c(c21)O[C@H](c1ccccc1)c1ccccc1-3` (relative stereo) [Compound 391, (R/S-4l,6l)-1,2,3,4-Tetrahydro-2,2,4-trimethyl-6-phenyl-5H-isochromeno[3,4-f]-3-quinolinone] was run?
Answer: > 10 µM

Question: What about the Emax [1] of the same compound?
Answer: < 20%

Question: What about the IC50 [3] of the same compound?
Answer: 0.12 µM

Question: What about the Emax [3] of the same compound?
Answer: 65%

Question: What about the Ki [2] of the same compound?
Answer: 0.187 µM

Question: Which results are given for “8-(4-Chlorobenzoyl)-5-trifluoromethyl-7-pyridono[5,6-e]indoline [Compound 420]”?
Answer: EC50 ([9]; agonist potency = EC50): 2.1 µM; AR Agonist CV-1 Cells Efficacy (%) ([9]; relative to reference agonist DHT): 40%; IC50 ([10]; CV-1 cells, antagonist potency = IC50, DHT at its EC50, read-out: AR Antagonist CV-1 Cells Potency): 0.032 µM; AR Antagonist CV-1 Cells Efficacy (%) ([10]; CV-1 cells, percent maximal inhibition, DHT at its EC50): 80%; Ki [11]: 0.346 µM

Question: Which Emax [1] does the source give for `CC1=CC(C)(C)Nc2ccc(-c3cccc(C#N)c3)cc21` [Compound 150, 6-(3-Cyanophenyl)-1,2-dihydro-2,2,4-trimethylquinoline] here?
Answer: 24%

Question: And the Emax [3]?
Answer: 91%

Question: What about the IC50 [10] of the same compound?
Answer: 0.14 µM

Question: What about the IC50 [5] of the same compound?
Answer: > 10 µM

Question: And the IC50 [6]?
Answer: 2.7 µM

Question: And the IC50 [7]?
Answer: 1.9 µM

Question: And the “Percent Pregnancy Rate” value ([12]; 5.0 mg/day oral, days 2 to 4 of pregnancy, mice)?
Answer: 0

Question: What about the “effect on pregnancy rate with simultaneous PR agonist” value ([12]; simultaneous injection of R5020 (promegestone) at 1.0 mg per day) of the same compound?
Answer: reversed to the control level

Question: Which results are given for `CC1=CC(C)(C)Nc2ccc(-c3cccc(F)c3F)cc21` [Compound 152, 6-(2,3-Difluorophenyl)-1,2-dihydro-2,2,4-trimethylquinoline]?
Answer: EC50 [1]: > 10 µM; Emax [1]: < 20%; IC50 [3]: 0.13 µM; Emax [3]: 82%; Ki [2]: 0.053 µM

Question: Which results are given for “(R/S-4l,5l)-3-Benzenzylidene-5-(4-chlorophenyl)-1,2,3,4-tetrahydro-2,2,4-trimethyl-5H-chromeno[3,4-f]quinoline [Compound 401]”?
Answer: EC50 [1, 13]: 0.6 µM; PR Agonist CV-1 Cells Efficacy (%) ([1]; CV-1 cells): 43%; IC50 ([3]; CV-1 cells, antagonist potency = IC50, progesterone at its EC50, read-out: PR Antagonist CV-1 Cells Potency): > 10 µM; PR Antagonist CV-1 Cells Efficacy (%) ([3]; CV-1 cells, percent maximal inhibition, progesterone at its EC50): na (na = not active (i.e. efficacy of <20 and potency of >10,000)); Ki [2, 14]: 0.15 µM
